From patent publication US20240307393A1, “PHARMACEUTICAL COMPOSITION FOR CANCER PREVENTION OR TREATMENT, COMPRISING CDK4/6 INHIBITOR AND TRICYCLIC ANTIDEPRESSANT” (priority 2021, published 2024)

Experiments:
[1] = tested on: colorectal cancer cell line HCT116; experiment: WST-1 cancer cell killing (cell survival) test in colorectal cancer cell line HCT116; type: cell-based, human; settings: 48 hours; for Cell survival rate (%) Combined treatment with abemaciclib: antidepressant at Table 1 concentration combined with 0.2 μM abemaciclib; for Cell survival rate (%) Combined treatment with palbociclib: antidepressant at Table 1 concentration combined with 5 μM palbociclib; for Cell survival rate (%) Combined treatment with ribociclib: antidepressant at Table 1 concentration combined with 20 μM ribociclib; for Cell survival rate (%) Treatment with antidepressants alone: imipramine 100, clomipramine 40, desipramine 20, amitriptyline 25, imipramine blue 0.4 μM (Table 1)
Method: (§2) This experiment was conducted on the lung cancer cell line H460, the colorectal cancer cell line HCT116, and the breast cancer cell line MCF7. […] The cell lines H460 and MCF7 were cultured using RPMI1640 medium containing 10% FBS and 1% penicillin-streptomycin, and the cell line HCT116 was cultured using McCoy's 5A medium containing 10% FBS and 1% penicillin-streptomycin.
(§3) The cell lines H460, HCT116 and MCF7 were cultured at 3×10^3 cells/well in a 96 well plate. The next day, each drug was prepared at the concentrations shown in Tables 1 and 2, mixed with the medium, and then added to each well and left for 48 hours. After 48 hours, 10 ul/well of WST-1 reagent was added thereto and reacted for 1 hour. Samples reacted with WST-1 were analyzed by ELISA at 450 nM, and the same conditions were repeated three times to calculate the average value and standard error.

[2] = tested on: lung cancer cell line H460; experiment: WST-1 cancer cell killing (cell survival) test in lung cancer cell line H460; type: cell-based; settings: 48 hours; for Cell survival rate (%) Combined treatment with abemaciclib: antidepressant at Table 1 concentration combined with 4 μM abemaciclib; for Cell survival rate (%) Combined treatment with palbociclib: antidepressant at Table 1 concentration combined with 15 μM palbociclib; for Cell survival rate (%) Combined treatment with ribociclib: antidepressant at Table 1 concentration combined with 50 μM ribociclib; for Cell survival rate (%) Treatment with antidepressants alone: imipramine 100, clomipramine 40, desipramine 50, amitriptyline 45, imipramine blue 0.5 μM (Table 1)
Method: as §2, §3

[3] = tested on: breast cancer cell line MCF7; experiment: WST-1 cancer cell killing (cell survival) test in breast cancer cell line MCF7; type: cell-based; settings: 48 hours; for Cell survival rate (%) Combined treatment with abemaciclib: antidepressant at Table 1 concentration combined with 10 μM abemaciclib; for Cell survival rate (%) Combined treatment with palbociclib: antidepressant at Table 1 concentration combined with 20 μM palbociclib; for Cell survival rate (%) Combined treatment with ribociclib: antidepressant at Table 1 concentration combined with 30 μM ribociclib; for Cell survival rate (%) Treatment with antidepressants alone: imipramine 50, clomipramine 20, desipramine 50, amitriptyline 50, imipramine blue 0.1 μM (Table 1)
Method: This experiment was conducted on the lung cancer cell line H460, the colorectal cancer cell line HCT116, and the breast cancer cell line MCF7. As for the genetic characteristics of each cell line, the lung cancer cell line H460 has a KRAS mutation [p.Q61H], the colorectal cancer cell line HCT116 has a KRAS mutation [p.G13D], and the breast cancer cell line MCF7 has the characteristic of being positive for estrogen receptor and progesterone receptor but negative for HER2. The cell lines H460 and MCF7 were cultured using RPMI1640 medium containing 10% FBS and 1% penicillin-streptomycin, and the cell line HCT116 was cultured using McCoy's 5A medium containing 10% FBS and 1% penicillin-streptomycin.
Specifically, abemaciclib, ribociclib and palbociclib were used as CDK4/6 inhibitors, and DMSO was used as a solvent to prepare the drug stock. […] Each drug was used after diluting to the concentrations shown in Table 1 (antidepressant concentration used (μM)) and Table 2 (CDK4/6 inhibitor concentration used (μM)) below.
The cell lines H460, HCT116 and MCF7 were cultured at 3×10^3 cells/well in a 96 well plate. The next day, each drug was prepared at the concentrations shown in Tables 1 and 2, mixed with the medium, and then added to each well and left for 48 hours. After 48 hours, 10 ul/well of WST-1 reagent was added thereto and reacted for 1 hour. Samples reacted with WST-1 were analyzed by ELISA at […], and the same conditions were repeated three times to calculate the average value and standard error.

[4] = tested on: colorectal cancer cell line HCT116 subcutaneous tumor; experiment: Tumor growth inhibition in HCT116 subcutaneous tumor model; type: in vivo, nude mice (Balb/c nude); parameters: reference not given here; settings: HCT116 subcutaneous tumor in nude mice, desipramine 20 mg/kg intraperitoneally, abemaciclib 30 mg/kg orally, once a day
Method: To evaluate the anti-tumor effect, the tumor size was measured every day until day 14 after treatment, and the differences between each group were analyzed. The tumor size was calculated as follows: V (mm^3)=1/2×long axis (mm)×short axis (mm)×height (mm). By day 14, the tumor size was measured, a tumor growth graph was created, and the tumor size between each group was compared and analyzed.

[5] = Toxicity evaluation: body weight for 14 days; type: in vivo, nude mice (Balb/c nude); settings: measured for 14 days; desipramine 20 mg/kg intraperitoneally, abemaciclib 30 mg/kg orally, once a day
Method: (§1) Specifically, the human colorectal cancer cell line HCT116 was purchased from the American Type Culture Collection (ATCC, USA) and cultured in McCoy's 5A medium containing 10% fetal bovine serum (FBS) and penicillin-streptomycin under conditions of 37° C., 5% carbon dioxide and standard humidity.

[6] = Toxicity evaluation: hematoxylin and eosin histology of major normal organs; type: in vivo, nude mice (Balb/c nude); settings: day 14; hematoxylin and eosin staining; desipramine 20 mg/kg intraperitoneally, abemaciclib 30 mg/kg orally, once a day
Method: as §1

Which “Cell survival rate (%) Combined treatment with abemaciclib” value [1] does the source give for `CN(C)CCC=C1c2ccccc2CCc2ccccc21` [Amitriptyline] here?
The value was 64%.

What about the “Cell survival rate (%) Combined treatment with palbociclib” value [1] of the same compound?
The value was 54%.

And the “Cell survival rate (%) Combined treatment with ribociclib” value [1]?
Its value is 46%.

And the “Cell survival rate (%) Treatment with antidepressants alone” value (from here on “Cell survival rate (%) Treatment”) [1]?
Its value is 86%.

What about the “Cell survival rate (%) Combined treatment with abemaciclib” value [2] of the same compound?
Its value is 50%.

And the “Cell survival rate (%) Combined treatment with palbociclib” value [2]?
Its value is 58%.

And the “Cell survival rate (%) Combined treatment with ribociclib” value [2]?
Its value is 32%.

And the “Cell survival rate (%) Treatment” value [2]?
The value was 65%.

What about the “Cell survival rate (%) Combined treatment with abemaciclib” value [3] of the same compound?
Its value is 21%.

And the “Cell survival rate (%) Combined treatment with palbociclib” value [3]?
The value was 45%.

What about the “Cell survival rate (%) Combined treatment with ribociclib” value [3] of the same compound?
The value was 28%.

And the “Cell survival rate (%) Treatment” value [3]?
The value was 63%.

What does the source list for `CN(C)CCCN1c2ccccc2CCc2ccc(Cl)cc21` [Clomipramine]?
Cell survival rate (%) Combined treatment with abemaciclib [1]: 32%; Cell survival rate (%) Combined treatment with palbociclib [1]: 34%; Cell survival rate (%) Combined treatment with ribociclib [1]: 23%; Cell survival rate (%) Treatment with antidepressants alone [1]: 65%; Cell survival rate (%) Combined treatment with abemaciclib [2]: 20%; Cell survival rate (%) Combined treatment with palbociclib [2]: 33%; Cell survival rate (%) Combined treatment with ribociclib [2]: 34%; Cell survival rate (%) Treatment with antidepressants alone [2]: 65%; Cell survival rate (%) Combined treatment with abemaciclib [3]: 37%; Cell survival rate (%) Combined treatment with palbociclib [3]: 43%; Cell survival rate (%) Combined treatment with ribociclib [3]: 56%; Cell survival rate (%) Treatment with antidepressants alone [3]: 81%

Which “tumor size on day 14” value [4] does the source give for `CNCCCN1c2ccccc2CCc2ccccc21` [Desipramine] here?
Its value is 75.2%.

What about the “body weight difference between groups” value [5] of the same compound?
Its value is “no significant difference in body weight”.

And the “Cell survival rate (%) Combined treatment with abemaciclib” value [1]?
Its value is 28%.

And the “Cell survival rate (%) Combined treatment with palbociclib” value [1]?
Its value is 44%.

What about the “Cell survival rate (%) Combined treatment with ribociclib” value [1] of the same compound?
Its value is 29%.

And the “Cell survival rate (%) Treatment” value [1]?
Its value is 71%.

What about the “histological changes of major organs (heart, lung, liver, spleen, kidney) compared to the control group” value [6] of the same compound?
The value was “no histological changes”.

What about the “Cell survival rate (%) Combined treatment with abemaciclib” value [2] of the same compound?
Its value is 24%.

What about the “Cell survival rate (%) Combined treatment with palbociclib” value [2] of the same compound?
The value was 14%.

And the “Cell survival rate (%) Combined treatment with ribociclib” value [2]?
The value was 16%.

And the “Cell survival rate (%) Treatment” value [2]?
Its value is 40%.

And the “Cell survival rate (%) Treatment” value [3]?
Its value is 60%.

For `CCN(CC)c1ccc(C(c2ccc(N(CC)CC)cc2)=c2ccc3c(c2)CCc2ccccc2[N+]=3CCCN(C)C)cc1` [Imipramine blue], which “Cell survival rate (%) Combined treatment with abemaciclib” value [1] is on record?
The value was 39%.

And the “Cell survival rate (%) Combined treatment with palbociclib” value [1]?
Its value is 43%.

And the “Cell survival rate (%) Combined treatment with ribociclib” value [1]?
Its value is 31%.

What about the “Cell survival rate (%) Treatment” value [1] of the same compound?
Its value is 53%.

And the “Cell survival rate (%) Combined treatment with abemaciclib” value [2]?
The value was 50%.

And the “Cell survival rate (%) Combined treatment with palbociclib” value [2]?
Its value is 36%.

What about the “Cell survival rate (%) Combined treatment with ribociclib” value [2] of the same compound?
Its value is 36%.

What about the “Cell survival rate (%) Treatment” value [2] of the same compound?
The value was 62%.

What about the “Cell survival rate (%) Combined treatment with abemaciclib” value [3] of the same compound?
Its value is 43%.

And the “Cell survival rate (%) Combined treatment with palbociclib” value [3]?
The value was 59%.

What about the “Cell survival rate (%) Combined treatment with ribociclib” value [3] of the same compound?
Its value is 60%.

And the “Cell survival rate (%) Treatment” value [3]?
Its value is 88%.

What does the source list for `CN(C)CCCN1c2ccccc2CCc2ccccc21` [Imipramine]?
Cell survival rate (%) Combined treatment with abemaciclib [1]: 58%; Cell survival rate (%) Combined treatment with palbociclib [1]: 41%; Cell survival rate (%) Combined treatment with ribociclib [1]: 39%; Cell survival rate (%) Combined treatment with abemaciclib [2]: 20%; Cell survival rate (%) Combined treatment with palbociclib [2]: 53%; Cell survival rate (%) Combined treatment with ribociclib [2]: 47%; Cell survival rate (%) Combined treatment with abemaciclib [3]: 34%; Cell survival rate (%) Combined treatment with palbociclib [3]: 53%; Cell survival rate (%) Combined treatment with ribociclib [3]: 55%

With `CCN1CCN(Cc2ccc(Nc3ncc(F)c(-c4cc(F)c5nc(C)n(C(C)C)c5c4)n3)nc2)CC1` [abemaciclib] as the compound, how does the “tumor size on day 14” value [4] read?
The value was 54.6%.

What about the “body weight difference between groups” value [5] of the same compound?
The value was “no significant difference in body weight”.

And the “colorectal cancer cell survival rate, abemaciclib alone” value ([1]; 0.2 μM abemaciclib alone, WST-1)?
Its value is 87%.

And the “histological changes of major organs (heart, lung, liver, spleen, kidney) compared to the control group” value [6]?
The value was “no histological changes”.

What about the “lung cancer cell survival rate, abemaciclib alone” value ([2]; 4 μM abemaciclib alone, WST-1) of the same compound?
The value was 71%.

And the “breast cancer cell survival rate, abemaciclib alone” value ([3]; 10 μM abemaciclib alone, WST-1)?
The value was 59%.

With `CC(=O)c1c(C)c2cnc(Nc3ccc(N4CCNCC4)cn3)nc2n(C2CCCC2)c1=O` [palbociclib] as the compound, how does the “colorectal cancer cell survival rate, palbociclib alone (HCT116 section)” value ([1]; 5 μM palbociclib alone, WST-1) read?
The value was 79%.

What about the “lung cancer cell survival rate, palbociclib alone” value ([2]; 15 μM palbociclib alone, WST-1) of the same compound?
The value was 67%.

And the “breast cancer cell survival rate, palbociclib alone” value ([3]; 20 μM palbociclib alone, WST-1)?
The value was 75%.

Which results are given for `CN(C)C(=O)c1cc2cnc(Nc3ccc(N4CCNCC4)cn3)nc2n1C1CCCC1` [ribociclib]?
colorectal cancer cell survival rate, ribociclib alone ([1]; 20 μM ribociclib alone, WST-1): 73%; lung cancer cell survival rate, ribociclib alone ([2]; 50 μM ribociclib alone, WST-1): 72%; breast cancer cell survival rate, ribociclib alone ([3]; 30 μM ribociclib alone, WST-1): 80%
